From ChEMBL document CHEMBL1156962, “Evaluation of retro-inverso modifications of HTLV-1 protease inhibitors containing a hydroxyethylamine isoster” (Bioorg Med Chem, 2010) come the findings set out here.

Molecules are shown by their SMILES. A value given as a limit tells only on which side of the number the result lay.

A short description of this experiment: Inhibition of HTLV1 protease assessed as decrease in substrate concentration by HPLC analysis. Set-up: species or system Human T-cell leukemia virus type I.
Turning to `CC[C@H](C)[C@@H](NC[C@H](O)[C@@H](CC(C)C)NC(=O)[C@H]1CCCN1C(C)=O)C(=O)N[C@@H](C(=O)N1CCC[C@@H]1C(N)=O)C(C)C`, the half-inhibitory concentration (IC50) is above 10000 µM.
In the case of `CC[C@@H](C)[C@@H](NC(=O)[C@@H](CC(C)C)[C@H](O)C[C@H]1CCCN1C(=O)NCc1ccccc1)C(=O)N[C@@H](C(=O)N1CCC[C@@H]1C(=O)N1CCC[C@@H]1C(N)=O)C(C)C` it was 160 µM.
As for `CC[C@@H](C)[C@@H](NC(=O)[C@@H](CC(C)C)[C@@H](O)C[C@H]1CCCN1C(=O)NCc1ccccc1)C(=O)N[C@@H](C(=O)N1CCC[C@@H]1C(=O)N1CCC[C@@H]1C(N)=O)C(C)C`, the figure is 550 µM; as for `CC[C@@H](C)[C@@H](NC(=O)[C@H](CC(C)C)[C@H](O)C[C@H]1CCCN1C(=O)NCc1ccccc1)C(=O)N[C@@H](C(=O)N1CCC[C@@H]1C(=O)N1CCC[C@@H]1C(N)=O)C(C)C`, 350 µM.
In the case of `CC[C@@H](C)[C@@H](NC(=O)[C@H](CC(C)C)[C@@H](O)C[C@H]1CCCN1C(=O)NCc1ccccc1)C(=O)N[C@@H](C(=O)N1CCC[C@@H]1C(=O)N1CCC[C@@H]1C(N)=O)C(C)C` it was 1500 µM.
Regarding `CC[C@H](C)[C@@H](NC[C@H](O)[C@@H](CC(C)C)NC(C)=O)C(=O)N[C@@H](C(=O)N1CCC[C@@H]1C(N)=O)C(C)C`, the IC50 was above 10000 µM.

One may read the IC50 as the concentration needed to halve the response being measured.
